This assay relates to BDF1 mice, P388 leukemia ip, median survival T/C. In words: NCI In Vivo Anticancer Drug Screen. Data for tumor model P388 Leukemia (intraperitoneal) in B6D2F1 (BDF1) mice. The conditions noted are these: endpoint: median survival time, higher = longer survival. The essentials:
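In tumour-bearing mice, survival after compound treatment is set against the vehicle group and given as a quotient.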

[1] abbreviates: dose: 50.0 mg/kg/injection, schedule: Q01DX009 (ip), vehicle: saline with Tween-80.
Where [2] appears, read: dose: 100.0 mg/kg/injection, schedule: Q01DX009 (ip), vehicle: saline with Tween-80.
Where [3] appears, read: dose: 400.0 mg/kg/injection, schedule: Q04DX003 (ip), vehicle: saline with Tween-80.
[4] abbreviates: dose: 200.0 mg/kg/injection, schedule: Q01DX009 (ip), vehicle: saline with Tween-80.
Setting [5] is: dose: 100.0 mg/kg/injection, schedule: Q04DX003 (ip), vehicle: saline.
Where [6] appears, read: dose: 12.5 mg/kg/injection, schedule: Q01DX009 (ip), vehicle: Klucel (hydroxypropylcellulose) (HPC).
The mark [7] stands for this setting: dose: 100.0 mg/kg/injection, schedule: Q01DX009 (ip), vehicle: Klucel (hydroxypropylcellulose) (HPC).
Where [8] appears, read: dose: 100.0 mg/kg/injection, schedule: Q04DX003 (ip), vehicle: Klucel (hydroxypropylcellulose) (HPC).
The mark [9] stands for this setting: dose: 200.0 mg/kg/injection, schedule: Q01DX009 (ip), vehicle: Klucel (hydroxypropylcellulose) (HPC).
[10] abbreviates: dose: 200.0 mg/kg/injection, schedule: Q04DX003 (ip), vehicle: Klucel (hydroxypropylcellulose) (HPC).
Where [11] appears, read: dose: 400.0 mg/kg/injection, schedule: Q04DX003 (ip), vehicle: Klucel (hydroxypropylcellulose) (HPC).
[12] abbreviates: dose: 400.0 mg/kg/injection, schedule: Q01DX009 (ip), vehicle: saline with Tween-80.
Setting [13] is: dose: 12.5 mg/kg/injection, schedule: Q01DX009 (ip), vehicle: saline with Tween-80.

Each structure is given as a SMILES string. Where “and” joins values, the source holds several entries; their conditions need not be identical. Identical values can stand only once. Toxic doses and inconclusive results are not listed.

For the compound `COC(=O)C1=C(C)NC(=O)NC1c1ccc(N(CCCl)CCCl)c(OC)c1` (stereo not drawn), the T/C is 169 % of control (dose: 1.3 mg/kg/injection, schedule: Q01DX009 (ip), vehicle: saline with Tween-80); 227 % of control (dose: 2.0 mg/kg/injection, schedule: Q01DX009 (ip), vehicle: saline with Tween-80); 220 % of control (dose: 3.0 mg/kg/injection, schedule: Q01DX009 (ip), vehicle: saline with Tween-80); 227 % of control (dose: 4.5 mg/kg/injection, schedule: Q01DX009 (ip), vehicle: saline with Tween-80).

For `CCCCN(CCCC)CCC(O)c1cc(-c2ccc(Cl)c(Cl)c2)nc2c(Cl)cc(Cl)cc12` (stereo not drawn), the T/C reads like this: under setting [1], 99 % of control; under setting [2], 110 % of control.

As for `CCOC(=O)C(C#N)N=Nc1ccccc1` (stereo not drawn), the T/C by setting is: (dose: 100.0 mg/kg/injection, schedule: Q04DX003 (ip), vehicle: saline with Tween-80) 90 % of control; (dose: 200.0 mg/kg/injection, schedule: Q04DX003 (ip), vehicle: saline with Tween-80) 95 % of control; under setting [3], 90 % of control.

Take `O=C(NC1CCC1C(=O)O)OCc1ccccc1` (stereo not drawn): the T/C by setting is: (dose: 100.0 mg/kg/injection, schedule: Q04DX002 (ip), vehicle: saline with Tween-80) 101 % of control; (dose: 200.0 mg/kg/injection, schedule: Q04DX002 (ip), vehicle: saline with Tween-80) 104 % of control; (dose: 400.0 mg/kg/injection, schedule: Q04DX002 (ip), vehicle: saline with Tween-80) 110 % of control.

Take `CN(Cc1cnc2nc(N)nc(N)c2n1)c1c(Cl)cc(C(=O)NC(CCC(=O)O)C(=O)O)cc1Cl` (stereo not drawn): the T/C by setting is: (dose: 17.5 mg/kg/injection, schedule: Q01DX009 (ip), vehicle: saline) 213 % of control; (dose: 35.0 mg/kg/injection, schedule: Q01DX009 (ip), vehicle: saline) 270 % of control; (dose: 70.0 mg/kg/injection, schedule: Q01DX009 (ip), vehicle: saline) 270 % of control; under setting [2], 95 % of control; under setting [4], 86 % of control; (dose: 264.0 mg/kg/injection, schedule: Q04DX003 (ip), vehicle: saline with Tween-80) 175 % of control. In addition, the T/C under setting [3] was 241 % of control and the T/C (dose: 600.0 mg/kg/injection, schedule: Q04DX003 (ip), vehicle: saline with Tween-80) is 250 % of control.

`O=c1oc2ccccc2n1Cc1ccc(Cl)cc1`: the T/C by setting is: (dose: 25.0 mg/kg/injection, schedule: Q01DX005 (ip), vehicle: saline with Tween-80) 92 % of control; (dose: 50.0 mg/kg/injection, schedule: Q01DX005 (ip), vehicle: saline with Tween-80) 99 % of control; (dose: 200.0 mg/kg/injection, schedule: Q01DX005 (ip), vehicle: saline with Tween-80) 94 % of control.

Consider `Cc1cc[n+]2cc3c(ccc4ccccc43)c(C)c2c1`, for which the T/C by setting is: (dose: 0.7 mg/kg/injection, schedule: Q01DX010 (ip), vehicle: carboxymethylcellulose (CMC)) 110 % of control; (dose: 1.5 mg/kg/injection, schedule: Q01DX010 (ip), vehicle: carboxymethylcellulose (CMC)) 100 % of control; (dose: 3.0 mg/kg/injection, schedule: Q01DX010 (ip), vehicle: carboxymethylcellulose (CMC)) 110 % of control; (dose: 6.0 mg/kg/injection, schedule: Q01DX010 (ip), vehicle: carboxymethylcellulose (CMC)) 115 % of control; (dose: 12.5 mg/kg/injection, schedule: Q01DX010 (ip), vehicle: carboxymethylcellulose (CMC)) 110 % of control; (dose: 25.0 mg/kg/injection, schedule: Q01DX010 (ip), vehicle: carboxymethylcellulose (CMC)) 110 % of control.

For `N#CCCCCNC(=O)C1CCC(=O)N1` (stereo not drawn), the T/C is, setting by setting: under setting [5], 111 % of control; (dose: 400.0 mg/kg/injection, schedule: Q04DX003 (ip), vehicle: saline) 111 % of control.

For the compound `Cc1nnc2c(Cl)nccn12`, the T/C reads like this: (dose: 100.0 mg/kg/injection, schedule: Q01DX001 (ip), vehicle: saline with Tween-80) 106 % of control; (dose: 200.0 mg/kg/injection, schedule: Q01DX001 (ip), vehicle: saline with Tween-80) 106 % of control.

On to `CCN(CC)CCCC(C)Nc1c2ccc(Cl)cc2nc2cc(Cl)ccc12` (stereo not drawn), for which the T/C under setting [6] was 120 % of control.

With `O=[N+]([O-])c1ccc(S(=O)c2ccc([N+](=O)[O-])cc2)cc1`, the T/C is 100 % of control under setting [7]; 100 % of control under setting [8]; 95 % of control under setting [9]; 100 % of control under setting [10]; 100 % of control under setting [11].

With `CC(=O)OCc1c(COC(C)=O)c(-c2ccc(Cl)c(Cl)c2)n2c1CCC2`, under setting [6], the T/C is 114 % of control.

For the compound `NC1CSSC1`, the T/C (dose: 0.39 mg/kg/injection, schedule: Q01DX009 (ip), vehicle: water) is 93 % of control and 108 % of control; the T/C (dose: 1.56 mg/kg/injection, schedule: Q04DX003 (ip), vehicle: water) was 97 % of control; the T/C (dose: 3.12 mg/kg/injection, schedule: Q04DX003 (ip), vehicle: water) is 106 % of control; the T/C (dose: 6.25 mg/kg/injection, schedule: Q01DX009 (ip), vehicle: water) was 91 % of control and 94 % of control and 96 % of control; the T/C (dose: 6.25 mg/kg/injection, schedule: Q04DX003 (ip), vehicle: water) was 105 % of control.

As for `Cc1ccccc1N=C(N)N=C(N)N`, the T/C reads like this: (dose: 50.0 mg/kg/injection, schedule: Q01DX009 (ip), vehicle: saline) 100 % of control; (dose: 100.0 mg/kg/injection, schedule: Q01DX009 (ip), vehicle: saline) 100 % of control.

As to `Cc1ccc(C(=O)O)c(=O)[nH]1`, the T/C reads like this: under setting [1], 98 % of control; under setting [2], 95 % of control; under setting [4], 100 % of control; under setting [12], 94 % of control.

As to `O=C1CCS(=O)(=O)c2ccccc21`, the T/C by setting is: (dose: 6.25 mg/kg/injection, schedule: Q01DX009 (ip), vehicle: saline with Tween-80) 101 % of control; under setting [13], 117 % of control; (dose: 25.0 mg/kg/injection, schedule: Q01DX009 (ip), vehicle: saline with Tween-80) 105 % of control; under setting [1], 98 % of control.

`COc1ccc(/C(C#N)=C\c2ccnc3ccccc23)cc1`: the T/C by setting is: (dose: 12.5 mg/kg/injection, schedule: Q01DX009 (ip), vehicle: other) 89 % of control; (dose: 25.0 mg/kg/injection, schedule: Q01DX009 (ip), vehicle: other) 93 % of control; (dose: 50.0 mg/kg/injection, schedule: Q01DX009 (ip), vehicle: other) 90 % of control; (dose: 200.0 mg/kg/injection, schedule: Q01DX009 (ip), vehicle: other) 100 % of control.

Consider `N#Cc1nc2nc(C(F)(F)F)[nH]c2nc1C#N`, for which the T/C reads like this: (dose: 6.25 mg/kg/injection, schedule: Q04DX003 (ip), vehicle: saline with Tween-80) 100 % of control; under setting [13], 95 % of control; (dose: 12.5 mg/kg/injection, schedule: Q04DX003 (ip), vehicle: saline with Tween-80) 100 % of control; (dose: 25.0 mg/kg/injection, schedule: Q04DX003 (ip), vehicle: saline with Tween-80) 87 % of control and 90 % of control.

In the case of `Clc1cc(Cl)c2c(c1)COCO2`, the T/C is, setting by setting: (dose: 25.0 mg/kg/injection, schedule: Q01DX009 (ip), vehicle: Klucel (hydroxypropylcellulose) (HPC)) 104 % of control; (dose: 50.0 mg/kg/injection, schedule: Q01DX009 (ip), vehicle: Klucel (hydroxypropylcellulose) (HPC)) 100 % of control; under setting [7], 109 % of control; under setting [8], 90 % of control; under setting [9], 90 % of control; under setting [10], 100 % of control. Further, the T/C under setting [11] was 100 % of control.

In the case of `O=C1Nc2ccc(Br)cc2C1=Nc1cccnc1`, the T/C reads like this: under setting [1], 100 % of control; under setting [2], 104 % of control; under setting [4], 111 % of control; under setting [12], 111 % of control.

Regarding `NC(CO)CSCc1ccccc1` (stereo not drawn), the T/C (dose: 12.5 mg/kg/injection, schedule: Q04DX003 (ip), vehicle: saline) was 114 % of control; the T/C (dose: 25.0 mg/kg/injection, schedule: Q04DX003 (ip), vehicle: saline) is 104 % of control; the T/C (dose: 50.0 mg/kg/injection, schedule: Q04DX003 (ip), vehicle: saline) was 98 % of control; the T/C under setting [5] was 97 % of control.

(Values after PubChem BioAssay AID328 (DTP/NCI, 2004).)
